ChEMBL document CHEMBL1201862, “PubChem BioAssay data set” (2004)
Active and inactive are the calls of the source.

How the values were obtained:
[1] = system: INS1; test: INS-1E survival protection against cytokine death – cell-based, luminescence, retest, dose response (AID 449756); assay type: functional; details: Rattus norvegicus;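 also: cell death triggered by IL-1 beta plus TNF-alpha plus IFN-gamma mixture; protective hits raise ATP signal compared with cytokine alone wells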
[2] = NIH-3T3 fibroblast cytotoxicity, dose response, cytotoxicity control, cell-based, fluorescence, Alamar Blue, secondary assay (AID 2327); assay type: functional;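 also: NIH-3T3 mouse fibroblasts cultured with fluconazole at 8 µg/mL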
[3] = alpha-synuclein stem-loop luciferase translation blockers – H4 neuroglioma cells, luminescence, confirmation (AID 1988); assay type: functional, cell-based
[4] = system: Streptococcus; test: GAS UMAA2166 growth inhibition – luminescence, BacTiterGlo, counter-screen for streptokinase expression inhibitor project, dose response (AID 1915); assay type: functional, organism-based;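 also: potency for reduction of bacterial viability or growth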
[5] = target: 72 kDa type IV collagenase (Homo sapiens, UniProt P08253); test: Dose Response validation of uHTS RPN11 inhibitor hits using a MMP-2 Fluorescence assay.; assay type: functional
[6] = target: T1, Short transient receptor potential channel 4 (Mus musculus, UniProt Q9QUQ5); test: calcium entry via TRPC4 opening agents – cell-based, HEK293 TRPC4/mu-opioid, Fluo-4 calcium, dose response (AID 434937); assay type: functional
T1 sequence (Q9QUQ5 whole entry): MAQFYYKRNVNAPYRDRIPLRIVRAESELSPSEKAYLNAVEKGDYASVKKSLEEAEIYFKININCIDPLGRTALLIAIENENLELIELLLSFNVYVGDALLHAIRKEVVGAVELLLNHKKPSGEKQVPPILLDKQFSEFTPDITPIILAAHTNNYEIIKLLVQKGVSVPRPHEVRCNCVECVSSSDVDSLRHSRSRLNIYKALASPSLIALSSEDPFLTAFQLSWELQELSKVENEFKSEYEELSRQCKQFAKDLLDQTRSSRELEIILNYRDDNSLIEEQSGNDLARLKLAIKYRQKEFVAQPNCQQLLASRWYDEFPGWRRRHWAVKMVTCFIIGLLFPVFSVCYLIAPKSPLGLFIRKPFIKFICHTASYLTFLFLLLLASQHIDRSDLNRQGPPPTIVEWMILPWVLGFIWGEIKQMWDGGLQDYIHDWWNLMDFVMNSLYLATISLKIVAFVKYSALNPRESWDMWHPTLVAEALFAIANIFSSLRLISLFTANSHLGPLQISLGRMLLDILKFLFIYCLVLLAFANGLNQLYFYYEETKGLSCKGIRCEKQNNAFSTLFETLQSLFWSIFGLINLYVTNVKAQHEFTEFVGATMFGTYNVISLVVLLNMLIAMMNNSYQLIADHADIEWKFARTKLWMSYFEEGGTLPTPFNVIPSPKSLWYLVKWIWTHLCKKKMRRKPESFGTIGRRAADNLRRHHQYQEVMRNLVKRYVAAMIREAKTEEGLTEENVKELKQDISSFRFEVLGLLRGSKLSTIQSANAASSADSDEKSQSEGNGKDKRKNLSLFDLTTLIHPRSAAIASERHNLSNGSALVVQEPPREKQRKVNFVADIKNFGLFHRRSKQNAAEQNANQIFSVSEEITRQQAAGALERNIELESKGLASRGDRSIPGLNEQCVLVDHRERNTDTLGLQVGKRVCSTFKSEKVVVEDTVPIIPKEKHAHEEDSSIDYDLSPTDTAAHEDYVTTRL

[7] = target: T2, Ubiquitin-conjugating enzyme E2 N (Homo sapiens, UniProt P61088); assay type: functional
T2 sequence (P61088 whole entry): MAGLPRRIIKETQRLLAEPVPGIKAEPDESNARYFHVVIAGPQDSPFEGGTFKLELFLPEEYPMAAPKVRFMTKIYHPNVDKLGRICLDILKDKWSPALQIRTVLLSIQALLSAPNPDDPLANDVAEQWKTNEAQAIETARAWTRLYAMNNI

[8] = viability loss in HeLa cells – cytotoxicity control for MgcRacGAP inhibitor project, dose response (AID 624300); assay type: functional
[9] = target: T3, DNA repair protein RAD52 homolog (Homo sapiens, UniProt P43351); assay type: functional, biochemical
T3 sequence (P43351 whole entry): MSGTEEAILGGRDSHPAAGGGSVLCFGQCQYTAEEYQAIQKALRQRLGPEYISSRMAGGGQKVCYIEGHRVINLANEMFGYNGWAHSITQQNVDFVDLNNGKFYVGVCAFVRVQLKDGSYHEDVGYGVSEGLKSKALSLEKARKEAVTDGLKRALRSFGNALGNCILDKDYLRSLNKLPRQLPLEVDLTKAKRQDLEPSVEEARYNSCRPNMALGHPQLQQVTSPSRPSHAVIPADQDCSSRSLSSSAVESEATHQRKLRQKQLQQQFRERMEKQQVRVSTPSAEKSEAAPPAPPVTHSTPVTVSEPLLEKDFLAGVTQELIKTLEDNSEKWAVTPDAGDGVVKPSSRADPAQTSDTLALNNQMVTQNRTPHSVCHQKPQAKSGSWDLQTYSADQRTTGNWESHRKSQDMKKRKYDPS

[10] = target: 26S proteasome non-ATPase regulatory subunit 14 (Homo sapiens, UniProt O00487); test: inhibition of proteasome subunit RPN11 – biochemical, fluorescence polarization, uHTS hits, confirmation (AID 602368); assay type: functional
[11] = target: T4, Caspase-6 (Homo sapiens, UniProt P55212); test: inhibition of CASP6 peptide cleavage – biochemical, VEID-R110 fluorescence, cherry-pick, dose response (AID 720632)
T4 sequence (P55212 whole entry): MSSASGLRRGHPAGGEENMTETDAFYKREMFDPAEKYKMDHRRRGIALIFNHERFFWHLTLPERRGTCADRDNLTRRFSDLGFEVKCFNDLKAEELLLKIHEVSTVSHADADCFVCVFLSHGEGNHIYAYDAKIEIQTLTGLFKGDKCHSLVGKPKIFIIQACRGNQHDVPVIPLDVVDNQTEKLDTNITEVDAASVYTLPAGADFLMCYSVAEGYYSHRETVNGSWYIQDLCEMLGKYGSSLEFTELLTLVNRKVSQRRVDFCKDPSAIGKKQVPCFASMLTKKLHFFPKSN

72 kDa type IV collagenase, sequence (P08253 whole entry): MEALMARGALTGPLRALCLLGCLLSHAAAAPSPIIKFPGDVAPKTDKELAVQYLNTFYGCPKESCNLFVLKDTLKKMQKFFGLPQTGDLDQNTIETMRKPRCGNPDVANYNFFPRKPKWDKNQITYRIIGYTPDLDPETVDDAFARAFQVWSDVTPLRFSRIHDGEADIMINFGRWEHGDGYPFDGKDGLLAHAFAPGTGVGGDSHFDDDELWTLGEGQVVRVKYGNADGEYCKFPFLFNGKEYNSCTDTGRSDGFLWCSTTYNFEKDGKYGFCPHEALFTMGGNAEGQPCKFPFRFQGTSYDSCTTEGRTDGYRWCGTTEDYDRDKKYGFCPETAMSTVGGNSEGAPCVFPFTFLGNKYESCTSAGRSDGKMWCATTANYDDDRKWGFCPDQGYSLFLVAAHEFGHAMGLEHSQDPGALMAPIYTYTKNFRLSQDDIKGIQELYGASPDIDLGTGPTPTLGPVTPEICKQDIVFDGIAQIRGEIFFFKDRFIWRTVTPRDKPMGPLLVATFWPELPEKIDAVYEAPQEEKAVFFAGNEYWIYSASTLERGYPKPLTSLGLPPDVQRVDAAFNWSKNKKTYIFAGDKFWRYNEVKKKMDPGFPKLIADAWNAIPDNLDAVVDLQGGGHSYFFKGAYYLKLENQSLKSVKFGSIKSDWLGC
26S proteasome non-ATPase regulatory subunit 14, sequence (O00487 whole entry): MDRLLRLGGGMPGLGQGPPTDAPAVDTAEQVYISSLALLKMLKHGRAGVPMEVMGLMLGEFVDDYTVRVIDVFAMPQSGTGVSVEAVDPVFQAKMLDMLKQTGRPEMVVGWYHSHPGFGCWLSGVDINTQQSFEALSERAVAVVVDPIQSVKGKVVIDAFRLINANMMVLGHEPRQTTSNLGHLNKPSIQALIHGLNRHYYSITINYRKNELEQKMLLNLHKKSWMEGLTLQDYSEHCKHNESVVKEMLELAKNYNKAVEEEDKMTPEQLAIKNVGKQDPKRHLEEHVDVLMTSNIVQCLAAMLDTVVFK

In the case of `N=C(N)N/N=C/c1ccc(N(c2ccccc2)c2ccccc2)cc1`, the AC50 [1] is reported as 7.12 µM (active), the EC50 [2] is reported as 18.5 µM (inconclusive) and the EC50 [3] is reported as 10.4 µM (active). The EC50 [4] was 3.39 µM (active), the IC50 [5] was 66.3 µM (active) and the EC50 [6] was 9.44 µM (active). For the same molecule, the IC50 [7] was 1.11 µM (active), the CC50 [8] was 17.1 µM (active) and the AC50 [9] was 10.8 µM (active). For the same molecule, the IC50 [10] was 18 µM (active) and the AC50 [11] was 10.1 µM (active).
